Data set [1] in a line: Ferric reducing capacity (reducing power, FRAP). Particulars: natural purified peptide, Figure 3a, tests repeated three times, read-out: EC50 values of active peptides: FRAP. The method, then: The reducing power of the peptide fractions was assayed as described by Moayedi et al.. Vitamin C was used as a positive control. The reducing power of active peptides was assayed by determining EC50 values.

The nature of data set [2]: DPPH radical scavenging activity. Particulars: for DPPH Radical Scavenging Activity (%): fractions purified from M-F and VM-F using HILIC, all at the same concentration (not given), n = 3, mean ± SD; for EC50: natural purified peptide, Figure 3a, tests repeated three times, read-out: EC50 values of active peptides: DPPH. The method, then:
The DPPH radical scavenging activity of the two peptide fractions was determined according to the methods described by Lee et al.. Vitamin C was used as a positive control. The EC50 values for DPPH radical scavenging was determined.

Data set [3] can be described thus: Hydroxyl radical scavenging activity. Particulars: natural purified peptide; Figure 3a; tests repeated three times; read-out: EC50 values of active peptides: OH. As for the experimental part:
The hydroxyl radical scavenging activity of peptide fractions was determined according to the methods described by Dong et al.. Vitamin C was used as a positive control. The hydroxyl radical activity of active peptides was evaluated by EC50.

For data set [4] the following is noted: synthetic peptides; simulated gastrointestinal digestion; samples 90 to 1800 μg/mL; p > 0.05. As for the experimental part: A series of samples with concentration range from 90 μg/mL (corresponding to 69.28 μM and 93.26 μM for […] and […], respectively) to 1800μg/mL were used in stability analysis.
Thermal stability and gastrointestinal digestion stability of two synthetic peptides were determined according to Chen et al.. The incubated temperature for peptide solutions was set as 20, 40, 60, and 80 °C, respectively. DPPH radical scavenging activities and ACE inhibitory activities of the peptide solutions were measured as the above description.

No end group written: not given here.

Turning to “YIAEDAER [VM-P7, Tyr-Ile-Ala-Glu-Asp-Ala-Glu-Arg]”, the EC50 in data set [1] is 856 µM; in data set [2] it was 185 µM; in data set [3], 814 µM. Further, the “DPPH Radical Scavenging Activity (%)” value in data set [2] is 82.60 ± 0.86%. In addition, in data set [4], the “effect of gastrointestinal digestion treatment on EC50 values of DPPH radical scavenging and ACE inhibitory activities” value is “have thermal and gastrointestinal stability”.

Regarding “YSQLENEFDR [M-P6, Tyr-Ser-Gln-Leu-Glu-Asn-Glu-Phe-Asp-Arg]”, the EC50 in data set [1] stood at 430 µM; in data set [2] it was 96.7 µM; in data set [3] it was 234 µM. Further, in data set [2], the “DPPH Radical Scavenging Activity (%)” value is given as 91.87 ± 0.62%. Further, in data set [4], the “effect of gastrointestinal digestion treatment on EC50 values of DPPH radical scavenging and ACE inhibitory activities” value is “have thermal and gastrointestinal stability”.
